Measured values: PubChem BioAssay (NCI)
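Dose response: 5 concentrations. Exposure: 48 h. Format: 96-well plates. Endpoint: linear interpolation; highest concentration if not reached. At the TGI there is no net growth.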

Key:
Experiment in all cases: growth of human tumour cells (NCI), 48 h
[1] = test system: HT29 colon
[2] = test system: IGROV1 ovarian
[3] = test system: U251 CNS
[4] = test system: DU-145 prostate
[5] = test system: T-47D breast
[6] = test system: MDA-N
[7] = test system: HOP-62 NSCLC
[8] = test system: LOX IMVI melanoma
[9] = test system: SNB-19 CNS
[10] = test system: TK-10 renal
[11] = test system: SF-295 CNS
[12] = test system: 786-0 renal
[13] = test system: HOP-92 NSCLC
[14] = test system: SNB-75 CNS
[15] = test system: A498 renal
[16] = test system: SK-OV-3 ovarian
[17] = test system: OVCAR-3 ovarian
[18] = test system: UACC-257 melanoma
[19] = test system: KM12 colon

Row | Structure (SMILES) | TGI [1] [µM] | TGI [2] [µM] | TGI [3] [µM] | TGI [4] [µM] | TGI [5] [µM] | TGI [6] [µM] | TGI [7] [µM] | TGI [8] [µM] | TGI [9] [µM] | TGI [10] [µM] | TGI [11] [µM] | TGI [12] [µM] | TGI [13] [µM] | TGI [14] [µM] | TGI [15] [µM] | TGI [16] [µM] | TGI [17] [µM] | TGI [18] [µM] | TGI [19] [µM]
1 | CCC1C(=O)C(O)[C@H]2[C@@H]3C(O)CC4=CC(=O)CC[C@]4(C)[C@H]3CC[C@]12C (some centres not stated) | > 50 | > 50 | > 50 | > 50 | > 50 | > 50 | > 50 | > 50 | > 50 | > 50 | > 50 | > 50 | > 50 | > 50 | > 50 | > 50 | > 50 | > 50 | > 50
2 | c1ccc(C(=NNc2cnc3ccccc3n2)c2ccccn2)cc1 | 17.7 | 11.5 | 23.8 | > 61.3 | 33.5 | > 52.2 | 20 | – | > 39.6 | – | 12.8 | 15.4 | 28.3 | 31.4 | > 100 | > 44.6 | 12.2 | 17.5 | 20.5
3 | O=C(O)[C@@H]1NC[C@H]2C(Br)=NO[C@H]21 | > 100 | > 100 | > 100 | > 100 | > 100 | > 100 | > 100 | > 100 | > 100 | > 100 | > 100 | > 100 | > 100 | > 100 | > 100 | > 100 | > 100 | > 100 | > 100
4 | O=c1[nH]cnc2c1ncn2[C@@H]1C[C@H]1CO | > 100 | > 100 | > 100 | > 100 | > 100 | > 100 | > 100 | > 100 | > 100 | > 100 | – | > 100 | > 100 | > 100 | > 100 | – | – | > 100 | > 100
5 | COC(=O)/C=C(\S/C(=N\n1cc(C(=O)OC)c(C(=O)OC)c1-c1ccc(C)cc1)c1ccc(C)cc1)C(=O)OC | 9.67 | 44.5 | 14.1 | 31.4 | > 100 | 12.7 | 41.6 | 17 | > 61 | 8.42 | > 100 | 9.69 | 8.31 | 31.4 | 30 | > 57.3 | 12.4 | 9.84 | 41.9
6 | Clc1ccc(-c2ccc(-c3nn4c(CNc5ccccc5)nnc4s3)o2)c(Cl)c1 | > 100 | > 100 | > 100 | > 100 | > 100 | > 100 | > 100 | > 100 | > 100 | > 100 | > 100 | > 100 | > 100 | > 100 | > 100 | > 100 | > 100 | > 100 | > 100
7 | COc1ccc(/C(CC2OC(=O)c3ccccc32)=N\NC(=O)C[N+](C)(C)C)cc1 (configuration not stated) | 40.9 | > 100 | 36.3 | 63.4 | > 100 | > 100 | > 100 | 65.9 | 96.5 | 87.8 | > 100 | 69.3 | 67.8 | 75.6 | 60.1 | > 100 | > 100 | 91.8 | 52
8 | O=C(c1cc2c(c3ccccc13)NCCN=C2C(F)(F)F)C(F)(F)F | 33.1 | > 100 | 36.9 | > 100 | > 100 | > 100 | 53 | 38.4 | – | 78 | 50.1 | 84.8 | 86.6 | > 100 | 40.3 | 93.2 | 80.9 | 42.7 | > 100
9 | O=c1c2cc([N+](=O)[O-])ccc2nc2n1CCCCC2 | > 100 | > 100 | > 100 | > 100 | > 100 | > 100 | > 100 | > 100 | – | > 100 | > 100 | > 100 | > 100 | > 100 | > 100 | > 100 | > 100 | > 100 | > 100
10 | CCOP(=O)(OCC)[C@H]1OC(C)(C)O[C@@H]1CO | > 100 | > 100 | > 100 | > 100 | > 100 | > 100 | > 100 | > 100 | > 100 | > 100 | > 100 | > 100 | > 100 | – | > 100 | > 100 | > 100 | > 100 | > 100
11 | COc1cccc(Cc2cc(=O)c3ccc(C)nc3[nH]2)c1 | > 100 | > 100 | > 100 | > 100 | > 100 | > 100 | > 100 | > 100 | > 100 | > 100 | > 100 | > 100 | > 100 | > 100 | > 100 | > 100 | > 100 | > 100 | > 100
12 | O=[N+]([O-])c1cc(Cl)cc2cc(Br)cnc12 | > 31.6 | > 23.7 | > 31.6 | > 31.6 | > 31.6 | > 31.6 | > 31.6 | > 31.6 | > 31.6 | > 31.6 | > 31.6 | > 31.6 | > 23.5 | > 31.6 | > 31.6 | – | > 31.6 | > 31.6 | –
13 | CN1CCN(CCCCN2c3ccccc3Sc3cc(N=[N+]=[N-])ccc32)CC1 | 3.03 | 4.26 | 7.83 | 15.1 | 31.9 | 11.2 | 6.63 | 3.22 | 10.8 | 3.43 | 5.65 | 3.03 | 6.43 | 10.1 | 22.8 | 22 | 6.53 | 3.89 | 3.48
